# Measured values from ChEMBL document CHEMBL4627301, “Discovery of novel hydroxyamidine derivatives as indoleamine 2,3-dioxygenase 1 inhibitors with in vivo anti-tumor efficacy” (Bioorg Med Chem Lett, 2020).
# Calls of active or inactive are those of the source. The calls are words filed in the database; no cut-off is given here.
# Columns and labels:
# [1] = molecular target: T1, Indoleamine 2,3-dioxygenase 1 (Homo sapiens, UniProt P14902); assay: Inhibition of IDO1 (unknown origin) assessed as reduction in kynurenine formation using L-tryptophan as substrate incubated for 60 mins by fluorescence based assay
# T1 sequence (P14902 whole entry): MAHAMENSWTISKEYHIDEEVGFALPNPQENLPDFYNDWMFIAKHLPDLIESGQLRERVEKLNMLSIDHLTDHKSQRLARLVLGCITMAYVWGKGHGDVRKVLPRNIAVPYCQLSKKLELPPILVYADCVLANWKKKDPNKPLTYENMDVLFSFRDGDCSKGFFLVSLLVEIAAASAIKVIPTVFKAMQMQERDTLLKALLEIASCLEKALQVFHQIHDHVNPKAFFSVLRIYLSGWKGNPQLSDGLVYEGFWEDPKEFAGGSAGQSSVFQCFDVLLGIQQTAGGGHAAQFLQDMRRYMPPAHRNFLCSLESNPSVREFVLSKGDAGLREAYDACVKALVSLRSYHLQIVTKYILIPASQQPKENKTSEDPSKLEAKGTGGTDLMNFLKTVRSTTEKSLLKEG
# [2] = molecular target: T1, Indoleamine 2,3-dioxygenase 1; assay: Inhibition of IDO1 in IFN-gamma stimulated human HeLa cells assessed as reduction in kynurenine formation using L-tryptophan as substrate incubated for 24 hrs by UV-spectrophotometry; format: cell-based
# [3] = Toxicity in C57BL/6 mouse xenografted with mouse LLC cells assessed as body weight loss at 100 mg/kg, po administered bid for 14 days and measured for 14 days; format: organism-based, Lewis lung carcinoma; settings: in vivo, 336 h
# [4] = tested on: Lewis lung carcinoma cell line; assay: Antitumor activity against mouse LLC cells xenografted in C57BL/6 mouse assessed as tumor growth inhibition at 100 mg/kg, po administered bid for 14 days and measured for 14 days; format: functional, organism-based
SMILES,IC50 [1] [nM],EC50 [2] [nM],Activity [3],TGI [4]
NNc1nonc1/C(=N/O)Nc1ccc(F)c(Br)c1,108,556,,
N#CN=S1CC(Nc2nonc2/C(=N/O)Nc2ccc(F)c(Br)c2)C1 (stereo unspecified),69,73,,
O=S(=O)(CCNc1nonc1/C(=N/O)Nc1ccc(F)c(Br)c1)NCC(F)(F)F,140,268,,
NS(=O)(=O)NNc1nonc1/C(=N/O)Nc1ccc(F)c(Br)c1,218,101,,
CN(C)S(=O)(=O)CCCNc1nonc1/C(=N/O)Nc1ccc(F)c(Br)c1,97,20,,
NS(=O)(=O)CCNc1nonc1/C(=N/O)Nc1ccc(F)c(Br)c1,71,11,Non-Toxic,Active
NNS(=O)(=O)CCNc1nonc1/C(=N/O)Nc1ccc(F)c(Br)c1,135,> 800,,
CCNS(=O)(=O)CCNc1nonc1/C(=N/O)Nc1ccc(F)c(Br)c1,95,41,,
CN(C)S(=O)(=O)CCNc1nonc1/C(=N/O)Nc1ccc(F)c(Br)c1,105,17,,
NS(=O)(=O)NCCNc1nonc1/C(=N/O)Nc1ccc(F)c(Br)c1,,,,Active
CS(=O)(=O)NNc1nonc1/C(=N/O)Nc1ccc(F)c(Br)c1,609,> 800,,
N=S1(=O)CC(Nc2nonc2/C(=N/O)Nc2ccc(F)c(Br)c2)C1 (stereo unspecified),208,53,,
[O-][S+]1CC(Nc2nonc2/C(=N/O)Nc2ccc(F)c(Br)c2)C1 (stereo unspecified),212,79,,
NS(=O)(=O)CCCNc1nonc1/C(=N/O)Nc1ccc(F)c(Br)c1,126,15,,
NS(=O)(=O)CCONc1nonc1/C(=N/O)Nc1ccc(F)c(Br)c1,87,27,,
O=S(=O)(CCNc1nonc1/C(=N/O)Nc1ccc(F)c(Br)c1)N1CCC1,191,143,,
C#CCNS(=O)(=O)CCNc1nonc1/C(=N/O)Nc1ccc(F)c(Br)c1,218,33,,
O=S1(=O)CC(Nc2nonc2/C(=N/O)Nc2ccc(F)c(Br)c2)C1,99,59,,
O=S(=O)(CCNc1nonc1/C(=N/O)Nc1ccc(F)c(Br)c1)NO,126,> 800,,
O=S(=O)(CCNc1nonc1/C(=N/O)Nc1ccc(F)c(Br)c1)NCC1CC1,312,268,,
